Values quoted from earlier work in patent US20190350224A1, “METHOD FOR IMPROVING MUSCLE FORCE OR PHYSICAL FUNCTION” (University of Washington, priority 2018, published 2019).

Conditions: against reactive oxygen species

In the case of `CC1=C(/C=C/C(C)=C/C=C/C(C)=C/C=C/C=C(C)/C=C/C=C(C)/C=C/C2=C(C)C(=O)C(O)CC2(C)C)C(C)(C)CC(O)C1=O` (stereo not drawn) [astaxanthin, 3,3′-dihydroxy-β,β-carotene-4,4′-dione], the “antioxidant action relative to n-carotene” value is listed as “about 40 times”.
